Source: patent US20240381822A1, “PLANT PART QUALITY” (Valent BioSciences LLC, priority 2023, published 2024)

What was measured:
Type in all cases: in vivo
[1] = tested on: Flamin' Fury® variety Peaches; test: Flesh browning of peaches after cold storage (Example 1); details: for % Healthy Fruit: 1-minute dip, 5 degrees Celsius 4 weeks, 1 day room temperature, flesh browning score less than 3
Experimental: ' Fury® variety Peaches were harvested and maintained at room temperature until treatment. Peaches were divided into 9 equal sets. Each treatment type contained 15 peaches and was repeated 3 times for a total of 45 peaches per treatment. For treatment, water, (S)-abscisic acid (“S-ABA”), methyl jasmonate or a mixture of S-ABA and methyl jasmonate were applied to peaches after harvest via a 1-minute dip at the following concentrations: 1) water only; 2) 0.33 millimolar (“mM”) S-ABA; 3) 3.3 mM S-ABA; 4) 0.33 mM methyl jasmonate; 5) 3.3 mM methyl jasmonate; 6) 0.33 mM S-ABA and 0.33 mM methyl jasmonate; 7) 0.3 mM S-ABA and 3.3 mM methyl jasmonate; 8) 3.3 mM S-ABA and 0.33 mM methyl jasmonate or 9) 3.3 mM S-ABA and 3.3 mM methyl jasmonate. Each treatment includes 0.025% Latron B-1956® (available from J. R. Simplot Company) as an adjuvant. All peaches were subsequently dried for 30 minutes and then stored at 5 degrees Celsius for 4 weeks. Following cold storage all peaches were placed at room temperature for 1 day and then evaluated for flesh browning. Flesh browning was determined using a 6-point scale developed by Crisosto G. M. 2015 wherein a score of 1=no browning, 2=very slight browning in the pit cavity, 3=slight browning in the pit cavity and surrounding tissue, 4=moderate browning on less than 50% of the flesh, 5=severe browning on 50% to 75% of the flesh and 6=extreme browning covering most of the flesh. A flesh browning score of more than 3 was determined as a “flesh browning incident” and a score of less than 3 was determined as “healthy fruit” for efficacy purposes. […] To determine if the mixtures provided unexpected results, the observed combined efficacy (“OCE”) was divided by the expected combined efficacy (“ECE”) wherein the expected ECE is calculated by the Abbott method: wherein ECE is the expected combined efficacy and in which A and B are the quality score provided by application of the single active ingredients. If the ratio between the OCE of the mixture and the ECE of the mixture is greater than 1, then greater than expected interactions are present in the mixture. (Gisi, Synergistic Interaction of Fungicides in Mixtures, The American Phytopathological Society, 86:11, 1273-1279,1996).

[2] = tested on: Summer Flame 34 variety Peaches; test: Flesh browning of waxed peaches after cold storage (Example 2); details: for Fold Change from Control (Flesh Browning Average Score): 1.2 mM single active; for Flesh Browning Average Score: 1.2 mM single active in Prima Fresh 55EU wax, 5 degrees Celsius 25 days, 3 day room temperature, 6-point scale
Experimental: Flesh browning was determined using a 6-point scale developed by Crisosto G. M. 2015 wherein a score of 1=no browning, 2=very slight browning in the pit cavity, 3=slight browning in the pit cavity and surrounding tissue, 4=moderate browning on less than 50% of the flesh, 5=severe browning on 50% to 75% of the flesh and 6=extreme browning covering most of the flesh. A flesh browning score of more than 3 was determined as a “flesh browning incident” and a score of less than 3 was determined as “healthy fruit” for efficacy purposes.
(§1) Summer Flame 34 variety Peaches were harvested and maintained at room temperature until treatment. Peaches were divided into 4 equal sets. Each treatment type contained 32 peaches and was repeated 3 times for a total of 96 peaches per treatment. For treatment, water, (S)-abscisic acid (“S-ABA”), methyl jasmonate or a mixture of S-ABA and methyl jasmonate were mixed in Prima Fresh 55EU wax and applied in a semicommercial mini packing line to simulate commercial packing conditions. Active ingredients were mixed into the wax at the following concentrations: 1) wax only; 2) 1.2 mM S-ABA; 3) 1.2 mM methyl jasmonate; 4) 1.2 mM S-ABA and 1.2 mM methyl jasmonate. All peaches were immediately stored at 5 degrees Celsius for 25 days. Following cold storage all peaches were placed at room temperature for 3 day and then evaluated for flesh browning as described in Example 1, above and also for flesh mealiness.
(§2) Determination of unexpected results was calculated using the method described in Example 1, above.

[3] = tested on: Summer Flame 34 variety Peaches; test: Flesh mealiness of waxed peaches after cold storage (Example 2); details: for Fold Change from Control (Flesh Mealiness Average Score): 1.2 mM single active; for Flesh Mealiness Average Score: 1.2 mM single active in Prima Fresh 55EU wax, 5 degrees Celsius 25 days, 3 day room temperature, 3-point scale
Source text: as §1
Flesh mealiness was determined using a 3-point scale developed by Crisosto G. M. 2015 wherein a score of 1=juicy fruit, 2=moderately mealy fruit (small amount of juice released upon squeezing) and 3=severely mealy fruit (almost no juice released upon squeezing). A flesh mealiness score of 2 or more was determined as a “flesh mealiness incident” and a score of 1 was determined as “healthy fruit” for efficacy purposes.
as §2

[4] = tested on: Cucumbers; test: Electrolyte leakage of cucumbers after cold storage (Example 3); details: for % Electrolyte Leakage: 2-minute dip, 5 degrees Celsius 11.5 days, then room temperature
Source text: Cucumbers were harvested and waxed and maintained at room temperature until treatment. Cucumbers were divided into 9 equal sets. Each treatment type contained 11-13 cucumbers peaches and was repeated 3 times for a total of 33-39 peaches per treatment. For treatment, water, (S)-abscisic acid (“S-ABA”), methyl jasmonate or a mixture of S-ABA and methyl jasmonate were applied to cucumber after harvest via a 2-minute dip at the following concentrations: 1) water only; 2) 0.3 millimolar (“mM”) S-ABA; 3) 3 mM S-ABA; 4) 0.3 mM methyl jasmonate; 5) 3 mM methyl jasmonate; 6) 0.3 mM S-ABA and 0.3 mM methyl jasmonate; 7) 0.3 mM S-ABA and 3 mM methyl jasmonate; 8) 3 mM S-ABA and 0.3 mM methyl jasmonate or 9) 3 mM S-ABA and 3 mM methyl jasmonate. Each treatment includes 0.025% Latron B-1956® (available from J. R. Simplot Company) as an adjuvant. All cucumbers were subsequently dried for 30 minutes and then stored at 5 degrees Celsius for 11.5 days. Following cold storage all cucumbers were placed at room temperature for 4 days and then evaluated for electrolyte leakage and decay on each of days 1, 2,3 and 4. For electrolyte leakage cucumbers were sliced and a 1-centimeter core sample (i.e. a disc) was taken from each slice. 10 discs were placed in each 50-milliliter centrifuge tube containing 30 milliliter of deionized water and shaken for 25 minutes. Electroconductivity was measured at time zero as soon as the treatments were processed (CO). Electroconductivity was measured again after the discs were shaken in the centrifuge tubes (C1). Finally, electroconductivity was measured after boiling the cucumber sample for 20 minutes and then cooled rapidly (C2). % electrolyte leakage was calculated by the following formula (C1−C0)/C2. Determination of unexpected results was calculated using the method described in Example 1. above.

[5] = tested on: Cucumbers; test: Decay evaluation of cucumbers after cold storage (Example 3); details: for % Healthy Fruit (decay): 2-minute dip, 5 degrees Celsius 11.5 days, then room temperature, 100% minus % disease incidence
Source text: Cucumbers were harvested and waxed and maintained at room temperature until treatment. Cucumbers were divided into 9 equal sets. Each treatment type contained 11-13 cucumbers peaches and was repeated 3 times for a total of 33-39 peaches per treatment. For treatment, water, (S)-abscisic acid (“S-ABA”), methyl jasmonate or a mixture of S-ABA and methyl jasmonate were applied to cucumber after harvest via a 2-minute dip at the following concentrations: 1) water only; 2) 0.3 millimolar (“mM”) S-ABA; 3) 3 mM S-ABA; 4) 0.3 mM methyl jasmonate; 5) 3 mM methyl jasmonate; 6) 0.3 mM S-ABA and 0.3 mM methyl jasmonate; 7) 0.3 mM S-ABA and 3 mM methyl jasmonate; 8) 3 mM S-ABA and 0.3 mM methyl jasmonate or 9) 3 mM S-ABA and 3 mM methyl jasmonate. Each treatment includes 0.025% Latron B-1956® (available from J. R. Simplot Company) as an adjuvant. All cucumbers were subsequently dried for 30 minutes and then stored at 5 degrees Celsius for 11.5 days. Following cold storage all cucumbers were placed at room temperature for 4 days and then evaluated for electrolyte leakage and decay on each of days 1, 2,3 and 4. Decay evaluation was performed by counting the number of cucumbers displaying decay and calculating the percentage of affected cucumbers. Decay severity was evaluated using a 1-3 score system, wherein 1=low, 2=medium and 3=high. Healthy fruit was calculated by subtracting the % of disease incidence from 100%. Determination of unexpected results was calculated using the method described in Example 1. above.

CC1=CC(=O)CC(C)(C)[C@@]1(O)/C=C/C(C)=C/C(=O)O [S-ABA, (S)-abscisic acid]
Fold Change from Control (% Healthy Fruit) ([1]; 0.33 mM single active): 0.35 | % Healthy Fruit ([1]; 0.33 mM single active): 17.3% | Fold Change from Control (% Healthy Fruit) ([1]; 3.3 mM single active): −0.33 | % Healthy Fruit ([1]; 3.3 mM single active): 8.6% | Fold Change from Control (Flesh Browning Average Score) [2]: −0.016 | Flesh Browning Average Score [2]: 3.03 | Fold Change from Control (Flesh Mealiness Average Score) [3]: −0.006 | Flesh Mealiness Average Score [3]: 1.66 | Fold Change from Control (% Electrolyte Leakage) ([4]; 0.3 mM single active): −0.05 | % Electrolyte Leakage ([4]; 0.3 mM single active): 61.3% | Fold Change from Control (% Electrolyte Leakage) ([4]; 3 mM single active): −0.05 | % Electrolyte Leakage ([4]; 3 mM single active): 61.3% | Fold Change from Control (% Healthy Fruit, decay) ([5]; 0.3 mM single active): 0.05 | % Healthy Fruit (decay) ([5]; 0.3 mM single active): 82.1% | Fold Change from Control (% Healthy Fruit, decay) ([5]; 3 mM single active): −0.29 | % Healthy Fruit (decay) ([5]; 3 mM single active): 55.7%

CC/C=C\CC1C(=O)CCC1CC(=O)OC (centres unmarked) [MJ, methyl jasmonate]
Fold Change from Control (% Healthy Fruit) ([1]; 0.33 mM single active): 1.18 | % Healthy Fruit ([1]; 0.33 mM single active): 28.0% | Fold Change from Control (% Healthy Fruit) ([1]; 3.3 mM single active): 2.26 | % Healthy Fruit ([1]; 3.3 mM single active): 41.8% | Fold Change from Control (Flesh Browning Average Score) [2]: −0.09 | Flesh Browning Average Score [2]: 2.79 | Fold Change from Control (Flesh Mealiness Average Score) [3]: −0.10 | Flesh Mealiness Average Score [3]: 1.50 | Fold Change from Control (% Electrolyte Leakage) ([4]; 0.3 mM single active): −0.06 | % Electrolyte Leakage ([4]; 0.3 mM single active): 60.3% | Fold Change from Control (% Electrolyte Leakage) ([4]; 3 mM single active): −0.07 | % Electrolyte Leakage ([4]; 3 mM single active): 59.7% | Fold Change from Control (% Healthy Fruit, decay) ([5]; 0.3 mM single active): −0.22 | % Healthy Fruit (decay) ([5]; 0.3 mM single active): 61.5% | Fold Change from Control (% Healthy Fruit, decay) ([5]; 3 mM single active): −0.09 | % Healthy Fruit (decay) ([5]; 3 mM single active): 71.4%
